Measurements taken from patent US11485980B2, “Method of meristem excision and transformation” (Monsanto Technology LLC, priority 2007, dated 2022).

Legend:
cotton explants [1] = experiment: Selection of transformed cotton explants with selective agent in tissue culture medium
cotton explants [2] = experiment: Spectinomycin in co-cultivation medium during Agrobacterium-mediated transformation; conditions: spectinomycin 50-100 ppm included in the co-cultivation medium; FIG. 8
Procedure: After the PlantconTM was closed, it was inserted into an appropriately sized holder, which was placed into a sonicator (e.g. L&R Ultrasonics QS140; L&R Manufacturing Co., […].; or a Honda […] sonicator, Honda, Denshi Japan). […] Sigma 526-36-23; Sigma Chemical Co, St. Louis, Mo.). After up to 5 min of sonication, the PlantconTM was placed securely on a shaker at 65-70 rpm or higher for 10 min for incubation. After inoculation, the Agrobacterium inoculum was removed from the PlantconTM. […] The INO medium may also be supplemented with plant growth regulators such as gibberellins (GA3), auxins (e.g. NAA, IBA, IAA, 2,4-D, dicamba, etc), cytokinins (e.g.

| Compound | Stably transformed plants produced at concentrations (ppm) (cotton explants [1]; selection agent in tissue culture medium, machine excised cotton explants after Agrobacterium co-cultivation) | Effect on transformation frequency (TF) (cotton explants [2]) | Appearance of non-transformed tissues under selection (cotton explants [1]; spectinomycin selection, transformed tissues green and properly developing, FIG. 5) |
| --- | --- | --- | --- |
| COc1c(Cl)ccc(Cl)c1C(=O)O [dicamba] | 0.3 ppm |  |  |
| CN[C@@H]1[C@H](O)[C@H](NC)[C@H]2O[C@@]3(O)C(=O)C[C@@H](C)O[C@H]3O[C@@H]2[C@H]1O [spectinomycin] |  | enhanced TF | bleached and often malformed |
